Reference: patent publication US20260102507A1, “CAMPTOTHECIN DERIVATIVE FOR TREATING OR PREVENTING CANCER AND ANTIBODY-DRUG CONJUGATE THEREOF” (CHENGDU BRILLIANT PHARMACEUTICAL CO., LTD., priority 2023, published 2026)
Where two headings read alike, the source gives them in different places.

Key:
Test in all cases: Cytotoxicity assay of camptothecin derivative toxins (Example A')
Type in all cases: cell-based
[1] = tested on: human lung adenocarcinoma cell line A549; settings: read-out: IC50 (nM) A549
Description: (§1) The camptothecin derivatives of the Examples of the present application were serially diluted with DMSO and the corresponding cell culture medium, and were added into a white-walled 96-well plate. Tumor cells (human ovarian cancer cell line SK-OV-3; human colon cancer cell line HCT116; human lung adenocarcinoma cell line A549; human lung adenocarcinoma cell line NCI-H441; human oral epidermoid carcinoma cell line KB) in logarithmic growth phase were digested and adjusted to a density of approximately 3.33×10^4 cells/mL. The cells were plated at 90 µL/well on the white-walled 96-well plate that was pre-loaded with the samples, followed by incubation at 37° C. in a 5% CO2 incubator for 3 days. The growth inhibitory effect of the small molecule compounds on tumor cells was evaluated by the Cell Titer Turbo 2.0 Luminescent Cell Viability Assay (Damas life, RA-GL11). Relative light unit (RLU) values were read from the cell culture plates using a microplate reader. Experimental data were analyzed with GraphPad Prism 8.0 software to calculate IC50 values.

[2] = tested on: human colon cancer cell line HCT116; settings: read-out: IC50 (nM) HCT116
Description: as §1

[3] = tested on: human ovarian cancer cell line SK-OV-3; settings: read-out: IC50 (nM) SK-OV-3
Description: as §1

[4] = tested on: human lung adenocarcinoma cell line NCI-H441; settings: read-out: IC50 (nM) NCI-H441
Description: as §1

[5] = Homo sapiens, A549, 72 h, Example A', 3 days incubation
[6] = Homo sapiens, HCT-116, 72 h, Example A', 3 days incubation
[7] = Homo sapiens, SK-OV-3, 72 h, Example A', 3 days incubation
[8] = Homo sapiens, NCI-H441, 72 h, Example A', 3 days incubation

Row | Compound | IC50 [1, 5] [nM] | IC50 [2, 6] [nM] | IC50 [3, 7] [nM] | IC50 [4, 8] [nM] | also measured
1 | CC[C@@]1(O)C(=O)OCc2c1cc1n(c2=O)Cc2c-1nc1cc(F)c(C)cc1c2NCCCCCO [STI-F17, (S)-4-ethyl-8-fluoro-4-hydroxy-11-((5-hydroxypentyl)amino)-9-methyl-1,12-dihydro-14H-pyrano[3′,4′:6,7]indolizino[1,2-b]quinoline-3,14(4H)-dione] | 377 | 17.2 | 20 | 28.7 | 
2 | CC[C@@]1(O)C(=O)OCc2c1cc1n(c2=O)Cc2c-1nc1cc(F)c(C)cc1c2NCCO [STI-F5, (S)-4-ethyl-8-fluoro-4-hydroxy-11-((2-hydroxyethyl)amino)-9-methyl-1,12-dihydro-14H-pyrano[3′,4′:6,7]indolizino[1,2-b]quinoline-3,14(4H)-dione] | 387 | 19 | 16.9 | 32.3 | 
3 | CC[C@@]1(O)C(=O)OCc2c1cc1n(c2=O)Cc2c-1nc1cc(F)c(C)cc1c2N[C@H]1CC[C@H](CO)CC1 [STI-F15, (S)-4-ethyl-8-fluoro-4-hydroxy-11-(((1r,4S)-4-(hydroxymethyl)cyclohexyl)amino)-9-methyl-1,12-dihydro-14H-pyrano[3′,4′:6,7]indolizino[1,2-b]quinoline-3,14(4H)-dione] |  |  |  |  | IC50 ([1]; Example A', 3 days incubation): 542 nM; IC50 ([2]; Example A', 3 days incubation): 22.6 nM; IC50 ([3]; Example A', 3 days incubation): 28.7 nM; IC50 ([4]; Example A', 3 days incubation): 50.9 nM
4 | CC[C@@]1(O)C(=O)OCc2c1cc1n(c2=O)Cc2c-1nc1cc(F)c(C)cc1c2NC/C=C/CO [STI-F8, (S,E)-4-ethyl-8-fluoro-4-hydroxy-11-((4-hydroxybut-2-en-1-yl)amino)-9-methyl-1,12-dihydro-14H-pyrano[3′,4′:6,7]indolizino[1,2-b]quinoline-3,14(4H)-dione] | 278 | 11.4 | 12.3 | 24.9 | 
5 | CC[C@@]1(O)C(=O)OCc2c1cc1n(c2=O)Cc2c-1nc1cc3c(cc1c2NCCCCO)OCO3 [STI-F18, (S)-7-ethyl-7-hydroxy-14-((4-hydroxybutyl)amino)-10,13-dihydro-11H-[1,3]dioxolo[4,5-g]pyrano[3′,4′:6,7]indolizino[1,2-b]quinoline-8,11(7H)-dione] |  |  |  |  | IC50 ([1]; Homo sapiens, A549, 72 h): 454 nM; IC50 ([2]; Homo sapiens, HCT-116, 72 h): 58.7 nM; IC50 ([3]; Homo sapiens, SK-OV-3, 72 h): 44.6 nM; IC50 ([4]; Homo sapiens, NCI-H441, 72 h): 42 nM
6 | CC[C@@]1(O)C(=O)OCc2c1cc1n(c2=O)Cc2c-1nc1cc(F)c(C)cc1c2N1CCC(CO)CC1 [STI-F14, (S)-4-ethyl-8-fluoro-4-hydroxy-11-(4-(hydroxymethyl)piperidin-1-yl)-9-methyl-1,12-dihydro-14H-pyrano[3′,4′:6,7]indolizino[1,2-b]quinoline-3,14(4H)-dione] | 156 | 12.4 |  | 11.1 | 
